# Measured values as given in US11649232B2, “Synthetic dimeric cinchona alkaloids against cancer” (Ares Pharmaceuticals, LLC, priority 2021, dated 2023).
# Where two headings read alike, the source gives them in different places.
# Legend:
# [1] = tested on: LOUCY (adult T-lineage ALL) cell line; assay: Flow cytometric Annexin V-FITC/PI apoptosis assay; format: cell-based, human; conditions: for IC50: Homo sapiens, read-out: IC50 (apoptosis)
# Description: (§1) Cell lines and Apoptosis Assays. We used the human leukemia cell lines ALL-1 (Ph+ adult ALL, B-lineage), LOUCY (adult T-lineage ALL; ATCC® CRL-2629™), and RAJI (Burkitt's leukemia/lymphoma; ATCC®, CCL-86) as targets to evaluate the anti-leukemic activity of cinchona alkaloids. In vivo leukemia initiating xenograft clones capable of causing disseminated and fatal leukemia in NOD-SCID mice, derived from primary leukemia cells of 5 patients with relapsed ALL, and the aforementioned 3 leukemia cells lines were treated for 24 hours or 48 hours at 37° C. with cinchona alkaloids at increasing concentrations ranging from 0.5 μM to 50 μM. Controls cells were treated with vehicle (PBS).
# (§2) Apoptotic death was monitored using multiparameter flow cytometry, as previously reported (Uckun, F. M. et al., British Journal of Haematology, 2011, 153:741-752; Uckun, F. M. et al., J Clin Invest., 2015, 125:1006-18). Controls included vehicle (PBS) treated cells (CON). Cells were analyzed for apoptosis using the standard quantitative flow cytometric apoptosis assay using the Annexin V-FITC Apoptosis Detection Kit from Sigma. The labeled cells were analyzed on a LSR II flow cytometer. The percent apoptosis was calculated using the formula: 100−100×(Percentage of non-apoptotic cells in test sample/Percentage of non-apoptotic cells in untreated control sample). The percentages for Annexin V FITC^−PI^− viable cells and Annexin V-FITC^+PI^+ advanced apoptotic cells for each sample are indicated in the respective quadrants of the depicted two-color fluorescence dot plots.
# as §1, with “We” for “Cell lines and Apoptosis Assays. We”, “ARES-BI-C001453. […]” for “cinchona alkaloids.”, “ARES-BI-C001453” for “cinchona alkaloids”
# [2] = tested on: ALL-1 (Ph+ adult ALL, B-lineage) cell line; assay: Flow cytometric Annexin V-FITC/PI apoptosis assay; format: cell-based, human; conditions: for IC50: Homo sapiens, read-out: IC50 (apoptosis)
# Description: as §1, §2
# as §1, with “We” for “Cell lines and Apoptosis Assays. We”, “ARES-BI-C001453. […]” for “cinchona alkaloids.”, “ARES-BI-C001453” for “cinchona alkaloids”
# [3] = tested on: RAJI (Burkitt's leukemia/lymphoma) cell line; assay: Flow cytometric Annexin V-FITC/PI apoptosis assay; format: cell-based, human; conditions: for IC50: Homo sapiens, read-out: IC50 (apoptosis)
# Description: as §1, §2
# as §1, with “We” for “Cell lines and Apoptosis Assays. We”, “ARES-BI-C001453. […]” for “cinchona alkaloids.”, “ARES-BI-C001453” for “cinchona alkaloids”
# [4] = tested on: BT-20 triple-negative breast cancer cell line; assay: Clonogenic assay (methylcellulose colony assay); format: cell-based, human
# Protocol: (§3) Clonogenic Assays. The cytotoxicity of cinchona alkaloids was tested against clonogenic human cancer cells was examined using a methylcellulose colony assay system, as described previously (Uckun, F. M. et al., J. Exp. Med., 1986, 163: 347-68; Uckun, F. M. et al., J. Clin. Invest., 1993, 91: 1044-1051). In brief, cells (10^5 cells/ml in RPMI-10% fetal bovine serum) were treated for 8 hours at 37° C. with cinchona alkaloids at varying concentrations. After treatment, cells were washed twice, and resuspended in clonogenic medium consisting of RPMI 1640 supplemented with 0.9% methylcellulose, 10% fetal bovine serum, and 50 μM 2-mercaptoethanol. Cells were plated at 5×10^4 cells/ml in RPMI 1640 supplemented with 10% fetal bovine serum, and 0.9% methylcellulose in duplicate 35-mm Petri dishes, and cultured for 7 days at 37° C. in a humidified 5% CO2 incubator. Subsequently, cancer cell colonies were enumerated on a grid using an inverted phase-contrast microscope of high optical resolution. Results were expressed as the % Inhibition=[1−(Number of colonies in compound-treated test cultures/Number of colonies in vehicle-treated control cultures)]×100.
# as §3, with “cytotoxicity of synthetic dimeric cinchona alkaloids” for “cytotoxicity of cinchona alkaloids”
# [5] = tested on: PC-3 castration-resistant prostate cancer cell line; assay: Clonogenic assay (methylcellulose colony assay); format: cell-based, human; conditions: for inhibition at 3 µM / IC50 / inhibition at 1 µM / inhibition at 10 µM: Homo sapiens
# Protocol: as §3
# as §3, with “cytotoxicity of synthetic dimeric cinchona alkaloids” for “cytotoxicity of cinchona alkaloids”
# [6] = tested on: ALL-1 BCR-ABL/Ph+ B-lineage ALL cell line; assay: Clonogenic assay (methylcellulose colony assay); format: cell-based, human; conditions: for in vitro colony formation by ALL-1 cells: 10 μM
# Protocol: as §3
# as §3, with “cytotoxicity of synthetic dimeric cinchona alkaloids” for “cytotoxicity of cinchona alkaloids”
# [7] = Flow cytometric Annexin V-FITC/PI apoptosis assay, combined data sets; format: cell-based; conditions: Homo sapiens, Raji, 24 or 48 hours treatment, 0.5-50 μM, read-out: estimated IC50 (apoptosis)
# Description: as §1
# as §2, with “The percentages for Annexin V FITC^−PI^− viable cells and Annexin V-FITC^+PI^+ advanced apoptotic cells for each sample are indicated in the respective quadrants of the depicted two-color fluorescence dot plots.” left out
# BT-20 and PC-3 cells = assay: Clonogenic assay, pooled 4 experiments (2 PC-3, 2 BT-20); format: cell-based, human
# Protocol: as §3
# as §3, with “cytotoxicity of synthetic dimeric cinchona alkaloids” for “cytotoxicity of cinchona alkaloids”
smiles,measurement,setting,value
CCC1(O)CCN2CCC1C[C@@H]2[C@@H](Oc1nnc(O[C@H](c2ccnc3ccc(OC)cc23)[C@@H]2N3CC[C@H]4C(O)(CC)CC243)c2ccccc12)c1ccnc2ccc(OC)cc12 (mixture of isomers) [ARES-BI-C001453],IC50,"[1]; LOUCY, side by side comparison",42 nM
same,IC50,"[2]; ALL-1, side by side comparison",780 nM
same,IC50,"[3]; RAJI, side by side comparison",8900 nM
same,Colonies/5 × 10^4 Cells,"[4]; BT-20 EXP#1, 1 μM",21.5 Colonies/5 × 10^4 Cells
same,Colonies/5 × 10^4 Cells,"[4]; BT-20 EXP#1, 3 μM",10.0 Colonies/5 × 10^4 Cells
same,Colonies/5 × 10^4 Cells,"[4]; BT-20 EXP#1, 10 μM",0.0 Colonies/5 × 10^4 Cells
same,Colonies/5 × 10^4 Cells,"[4]; BT-20 EXP#2, 1 μM",40.0 Colonies/5 × 10^4 Cells
same,Colonies/5 × 10^4 Cells,"[4]; BT-20 EXP#2, 3 μM",9.5 Colonies/5 × 10^4 Cells
same,Colonies/5 × 10^4 Cells,"[4]; BT-20 EXP#2, 10 μM",1.0 Colonies/5 × 10^4 Cells
same,inhibition at 1 µM,"[4]; Homo sapiens, BT-20, BT-20 EXP#1, 1 μM",78%
same,inhibition at 3 µM,"[4]; Homo sapiens, BT-20, BT-20 EXP#1, 3 μM",89.8%
same,inhibition at 10 µM,"[4]; Homo sapiens, BT-20, BT-20 EXP#1, 10 μM",> 98.9%
same,inhibition at 1 µM,"[4]; Homo sapiens, BT-20, BT-20 EXP#2, 1 μM",64.9%
same,inhibition at 3 µM,"[4]; Homo sapiens, BT-20, BT-20 EXP#2, 3 μM",91.7%
same,inhibition at 10 µM,"[4]; Homo sapiens, BT-20, BT-20 EXP#2, 10 μM",99.1%
same,IC50,"[4]; Homo sapiens, BT-20, two independent experiments, non-linear regression, read-out: IC50, inhibition of clonogenic growth",369 nM
same,inhibition at 3 µM,"[5]; PC-3, PC3 cells, 3 μM, read-out: inhibition of clonogenic growth",> 99%
same,IC50,"[5]; PC-3, PC3 cells, read-out: estimated IC50, clonogenic growth",129 nM
same,inhibition at 1 µM,"[5]; PC-3 EXP#1, 1 μM",91.9%
same,inhibition at 3 µM,"[5]; PC-3 EXP#1, 3 μM, read-out: % Inhibition",99.7%
same,inhibition at 10 µM,"[5]; PC-3 EXP#1, 10 μM",99.5%
same,inhibition at 1 µM,"[5]; PC-3 EXP#2, 1 μM",95.6%
same,inhibition at 3 µM,"[5]; PC-3 EXP#2, 3 μM, read-out: % Inhibition",99.4%
same,inhibition at 10 µM,"[5]; PC-3 EXP#2, 10 μM",99.4%
same,IC50,"[5]; PC-3, two independent experiments, non-linear regression, read-out: IC50, inhibition of clonogenic growth",56 nM
same,Colonies/5 × 10^4 Cells,"[5]; PC-3 EXP#1, 1 μM",15.0 Colonies/5 × 10^4 Cells
same,Colonies/5 × 10^4 Cells,"[5]; PC-3 EXP#1, 3 μM",0.5 Colonies/5 × 10^4 Cells
same,Colonies/5 × 10^4 Cells,"[5]; PC-3 EXP#1, 10 μM",1.0 Colonies/5 × 10^4 Cells
same,Colonies/5 × 10^4 Cells,"[5]; PC-3 EXP#2, 1 μM",7.0 Colonies/5 × 10^4 Cells
same,Colonies/5 × 10^4 Cells,"[5]; PC-3 EXP#2, 3 μM",1 Colonies/5 × 10^4 Cells
same,Colonies/5 × 10^4 Cells,"[5]; PC-3 EXP#2, 10 μM",1 Colonies/5 × 10^4 Cells
same,in vitro colony formation by ALL-1 cells,[6],abrogated the in vitro colony formation
same,Colonies/5 × 10^4 Cells,"[6]; ALL-1 EXP#1, 1 μM",27.5 Colonies/5 × 10^4 Cells
same,Colonies/5 × 10^4 Cells,"[6]; ALL-1 EXP#1, 3 μM",32.0 Colonies/5 × 10^4 Cells
same,Colonies/5 × 10^4 Cells,"[6]; ALL-1 EXP#1, 10 μM",0.0 Colonies/5 × 10^4 Cells
same,Colonies/5 × 10^4 Cells,"[6]; ALL-1 EXP#2, 1 μM",99.5 Colonies/5 × 10^4 Cells
same,Colonies/5 × 10^4 Cells,"[6]; ALL-1 EXP#2, 3 μM",14.5 Colonies/5 × 10^4 Cells
same,Colonies/5 × 10^4 Cells,"[6]; ALL-1 EXP#2, 10 μM",0.0 Colonies/5 × 10^4 Cells
same,inhibition at 1 µM,"[6]; Homo sapiens, ALL-1 EXP#1, 1 μM",91.5%
same,inhibition at 3 µM,"[6]; Homo sapiens, ALL-1 EXP#1, 3 μM",90.1%
same,inhibition at 10 µM,"[6]; Homo sapiens, ALL-1 EXP#1, 10 μM",> 99.7%
same,inhibition at 1 µM,"[6]; Homo sapiens, ALL-1 EXP#2, 1 μM",56.1%
same,inhibition at 3 µM,"[6]; Homo sapiens, ALL-1 EXP#2, 3 μM",93.6%
same,inhibition at 10 µM,"[6]; Homo sapiens, ALL-1 EXP#2, 10 μM",> 99.6%
same,IC50,"[6]; Homo sapiens, ALL-1, two independent experiments, non-linear regression, read-out: IC50, inhibition of clonogenic growth",290 nM
same,IC50,[7],8600 nM
same,mean number of residual clones forming colonies,"BT-20 and PC-3 cells; 1 μM, BT-20 and PC-3",20.9±5.3 /5×10^4 cells
same,inhibition at 1 µM,"BT-20 and PC-3 cells; Homo sapiens, 1 μM, 4 experiments (2 PC-3, 2 BT-20), read-out: inhibition of clonogenic growth (mean±SE)",82.6 ± 8.1%
same,inhibition at 10 µM,"BT-20 and PC-3 cells; Homo sapiens, 10 μM, BT-20 and PC-3, read-out: inhibition of clonogenic growth (mean±SE)",99.2 ± 0.2%
"CCC1CN2CCC1CC2C(Oc1nnc(OC(c2ccnc3ccc(OC)cc23)C2CC3CCN2CC3CC)c2ccccc12)c1ccnc2ccc(OC)cc12 (centres unmarked) [Compound C61, 1,4-Bis (9-O dihydroquinidinyl)phthalazine/hydroquinidine 1,4-phathalazinediyl diether, reference compound]",% Inhibition,"[4]; BT-20 EXP#1, 10 μM",45.9%
same,Colonies/5 × 10^4 Cells,"[4]; BT-20 EXP#1, 10 μM",53.0 Colonies/5 × 10^4 Cells
same,% Inhibition,"[4]; BT-20 EXP#2, 10 μM",31.6%
same,Colonies/5 × 10^4 Cells,"[4]; BT-20 EXP#2, 10 μM",78.0 Colonies/5 × 10^4 Cells
same,inhibition of clonogenic growth,"[5]; PC3 cells, 10 μM",67.7%
same,% Inhibition,"[5]; PC-3 EXP#1, 10 μM",77.9%
same,Colonies/5 × 10^4 Cells,"[5]; PC-3 EXP#1, 10 μM",41.0 Colonies/5 × 10^4 Cells
same,% Inhibition,"[5]; PC-3 EXP#2, 10 μM",57.5%
same,Colonies/5 × 10^4 Cells,"[5]; PC-3 EXP#2, 10 μM",67.0 Colonies/5 × 10^4 Cells
same,in vitro colony formation by ALL-1 cells,[6],abrogated the in vitro colony formation
same,% Inhibition,"[6]; ALL-1 EXP#1, 10 μM",>99.7%
same,Colonies/5 × 10^4 Cells,"[6]; ALL-1 EXP#1, 10 μM",0.0 Colonies/5 × 10^4 Cells
same,% Inhibition,"[6]; ALL-1 EXP#2, 10 μM",>99.6%
same,Colonies/5 × 10^4 Cells,"[6]; ALL-1 EXP#2, 10 μM",0.0 Colonies/5 × 10^4 Cells
same,inhibition of clonogenic growth (mean±SE),"BT-20 and PC-3 cells; 10 μM, BT-20 and PC-3",53.2±11.3%
same,mean number of residual clones forming colonies,"BT-20 and PC-3 cells; 10 μM, BT-20 and PC-3",59.8±6.3 /5×10^4 cells
CCC1CC23[C@H]([C@H](Oc4nnc(O[C@@H](c5ccnc6ccc(OC)cc56)[C@H]5CC6CCN5CCC6(O)CC)c5ccccc45)c4ccnc5ccc(OC)cc45)N2CC[C@@H]13 (some centres unmarked) [ARES-BI-C002453],IC50,[1],1500 nM
same,fold higher IC50 value than ARES-BI-C001453,[1]; LOUCY,35.7 fold
same,fold higher IC50 value than ARES-BI-C001453,[2]; ALL-1,9.4 fold
same,IC50,[2],7300 nM
same,IC50,[3]; Raji,16700 nM
same,fold higher IC50 value than ARES-BI-C001453,[3]; RAJI,1.9 fold
